According to PubChem BioAssay AID256 (DTP/NCI, 2004):
Several values for one entry are separate records, joined by “and”; a condition that tells them apart may be missing. Equal entries are not always repeated. Toxic doses and inconclusive results are not listed.

System: CD2F1 mice, L1210 leukemia ip, survival T/C
Test: NCI In Vivo Anticancer Drug Screen. Data for tumor model L1210 Leukemia (intraperitoneal) in CD2F1 (CDF1) mice
Details: higher = longer survival
Summary of the method: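 Mice carrying a transplanted tumor received test compound or vehicle alone. The value is the measurement in the treated group divided by that in the vehicle-treated control group.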

[1] = endpoint: mean survival time, dose: 100.0 mg/kg/injection, schedule: Q01DX001 (ip), vehicle: Klucel (hydroxypropylcellulose) (HPC)
[2] = endpoint: mean survival time, dose: 200.0 mg/kg/injection, schedule: Q01DX001 (ip), vehicle: Klucel (hydroxypropylcellulose) (HPC)
[3] = endpoint: mean survival time, dose: 400.0 mg/kg/injection, schedule: Q01DX001 (ip), vehicle: Klucel (hydroxypropylcellulose) (HPC)
[4] = endpoint: mean survival time, dose: 25.0 mg/kg/injection, schedule: Q04DX003 (ip), vehicle: saline with Tween-80
[5] = endpoint: mean survival time, dose: 50.0 mg/kg/injection, schedule: Q04DX003 (ip), vehicle: saline with Tween-80
[6] = endpoint: mean survival time, dose: 100.0 mg/kg/injection, schedule: Q04DX003 (ip), vehicle: saline with Tween-80
[7] = endpoint: mean survival time, dose: 200.0 mg/kg/injection, schedule: Q04DX003 (ip), vehicle: saline with Tween-80
[8] = endpoint: mean survival time, dose: 100.0 mg/kg/injection, schedule: Q01DX009 (ip), vehicle: saline with Tween-80
[9] = endpoint: mean survival time, dose: 200.0 mg/kg/injection, schedule: Q01DX009 (ip), vehicle: saline with Tween-80
[10] = endpoint: mean survival time, dose: 400.0 mg/kg/injection, schedule: Q01DX009 (ip), vehicle: saline with Tween-80
[11] = endpoint: mean survival time, dose: 25.0 mg/kg/injection, schedule: Q01DX009 (ip), vehicle: saline with Tween-80
[12] = endpoint: mean survival time, dose: 50.0 mg/kg/injection, schedule: Q01DX009 (ip), vehicle: saline with Tween-80
[13] = endpoint: mean survival time, dose: 400.0 mg/kg/injection, schedule: Q04DX003 (ip), vehicle: saline with Tween-80
[14] = endpoint: mean survival time, dose: 100.0 mg/kg/injection, schedule: Q01DX009 (ip), vehicle: saline sonified
[15] = endpoint: mean survival time, dose: 200.0 mg/kg/injection, schedule: Q01DX009 (ip), vehicle: saline sonified
[16] = endpoint: mean survival time, dose: 400.0 mg/kg/injection, schedule: Q01DX009 (ip), vehicle: saline sonified
[17] = endpoint: median survival time, dose: 25.0 mg/kg/injection, schedule: Q01DX005 (ip), vehicle: saline with Tween-80
[18] = endpoint: median survival time, dose: 50.0 mg/kg/injection, schedule: Q01DX005 (ip), vehicle: saline with Tween-80
[19] = endpoint: median survival time, dose: 100.0 mg/kg/injection, schedule: Q01DX005 (ip), vehicle: saline with Tween-80
[20] = endpoint: mean survival time, dose: 6.25 mg/kg/injection, schedule: Q01DX009 (ip), vehicle: saline with Tween-80
[21] = endpoint: mean survival time, dose: 12.5 mg/kg/injection, schedule: Q01DX009 (ip), vehicle: saline with Tween-80
[22] = endpoint: mean survival time, dose: 6.25 mg/kg/injection, schedule: Q04DX003 (ip), vehicle: saline with Tween-80
[23] = endpoint: mean survival time, dose: 12.5 mg/kg/injection, schedule: Q04DX003 (ip), vehicle: saline with Tween-80

SMILES: CC1c2ccccc2CC2(C)CN12 (stereo not drawn)
- T/C (endpoint: mean survival time, dose: 75.0 mg/kg/injection, schedule: Q01DX001 (ip), vehicle: saline): 103 % of control
- T/C (endpoint: mean survival time, dose: 150.0 mg/kg/injection, schedule: Q01DX001 (ip), vehicle: saline): 101 % of control
- T/C (endpoint: mean survival time, dose: 300.0 mg/kg/injection, schedule: Q01DX001 (ip), vehicle: saline): 97 % of control

SMILES: CC(O)C(=O)Oc1ccccc1 (stereo not drawn)
- T/C (endpoint: mean survival time, dose: 50.0 mg/kg/injection, schedule: Q01DX009 (ip), vehicle: other): 92 % of control
- T/C (endpoint: mean survival time, dose: 100.0 mg/kg/injection, schedule: Q01DX009 (ip), vehicle: other): 100 % of control
- T/C (endpoint: mean survival time, dose: 200.0 mg/kg/injection, schedule: Q01DX009 (ip), vehicle: other): 102 % of control

SMILES: CC(=O)N(Cc1ccncc1)N=O
- T/C (endpoint: mean survival time, dose: 75.0 mg/kg/injection, schedule: Q01DX001 (ip), vehicle: water): 110 % of control
- T/C (endpoint: mean survival time, dose: 150.0 mg/kg/injection, schedule: Q01DX001 (ip), vehicle: water): 114 % of control
- T/C (endpoint: mean survival time, dose: 300.0 mg/kg/injection, schedule: Q01DX001 (ip), vehicle: water): 116 % of control

SMILES: C[N+](C)(C)CC1CCCC1
- T/C (endpoint: mean survival time, dose: 5.0 mg/kg/injection, schedule: Q01DX001 (ip), vehicle: saline): 97 % of control
- T/C (endpoint: mean survival time, dose: 10.0 mg/kg/injection, schedule: Q01DX001 (ip), vehicle: saline): 102 % of control
- T/C (endpoint: mean survival time, dose: 20.0 mg/kg/injection, schedule: Q01DX001 (ip), vehicle: saline): 103 % of control
- T/C (endpoint: mean survival time, dose: 40.0 mg/kg/injection, schedule: Q01DX001 (ip), vehicle: saline): 103 % of control

SMILES: CSc1ccc(NC(C)=O)cc1
- T/C [1]: 94 % of control
- T/C [2]: 96 % of control
- T/C [3]: 96 % of control

SMILES: CC(C)(C)CC(C)(C)c1ccc(O)c(O)c1
- T/C [4]: 101 % of control
- T/C [5]: 93 % of control
- T/C [6]: 96 % of control

SMILES: CC(=O)Nc1ccc([N+](=O)[O-])cc1[N+](=O)[O-]
- T/C [6]: 100 % of control
- T/C [7]: 102 % of control

SMILES: Cc1ccc([N+](=O)[O-])cc1NC(=O)NNC(=O)CNC(=O)NCc1ccco1
- T/C [8]: 91 % of control
- T/C [9]: 89 % of control
- T/C [10]: 97 % of control

SMILES: CCN(CC)c1cc(Cl)ccc1C
- T/C (endpoint: mean survival time, dose: 12.5 mg/kg/injection, schedule: Q04DX002 (ip), vehicle: saline with Tween-80): 98 % of control
- T/C (endpoint: mean survival time, dose: 25.0 mg/kg/injection, schedule: Q04DX002 (ip), vehicle: saline with Tween-80): 95 % of control
- T/C (endpoint: mean survival time, dose: 50.0 mg/kg/injection, schedule: Q04DX002 (ip), vehicle: saline with Tween-80): 98 % of control
- T/C (endpoint: mean survival time, dose: 100.0 mg/kg/injection, schedule: Q01DX001 (ip), vehicle: saline sonified): 101 % of control
- T/C (endpoint: mean survival time, dose: 200.0 mg/kg/injection, schedule: Q01DX001 (ip), vehicle: saline sonified): 95 % of control
- T/C (endpoint: mean survival time, dose: 400.0 mg/kg/injection, schedule: Q01DX001 (ip), vehicle: saline sonified): 86 % of control

SMILES: Cc1nc2ccccc2cc1C[N+]12CN3CN(CN(C3)C1)C2
- T/C [11]: 106 % of control
- T/C [4]: 101 % of control
- T/C [12]: 113 % of control
- T/C [5]: 103 % of control
- T/C (endpoint: mean survival time, dose: 100.0 mg/kg/injection, schedule: Q01DX001 (ip), vehicle: saline): 109 % of control

SMILES: CCCCC(NC(=O)C(C)NC(=O)OCc1ccccc1)C(=O)O (stereo not drawn)
- T/C [6]: 98 % of control
- T/C [7]: 101 % of control
- T/C [13]: 98 % of control

SMILES: C=C(c1ccccc1)c1ccc(F)cc1
- T/C [14]: 102 % of control
- T/C [6]: 100 % of control
- T/C [15]: 97 % of control
- T/C [7]: 100 % of control
- T/C [16]: 103 % of control
- T/C [13]: 102 % of control

SMILES: CC(=O)C1=C(O)C(Cc2ccccc2)NC1=O (stereo not drawn)
- T/C [1]: 98 % of control
- T/C [2]: 102 % of control
- T/C [3]: 102 % of control

SMILES: O=Cc1c2ccc(Cl)cc2nc2cc(Cl)ccc12
- T/C [6]: 112 % of control
- T/C [7]: 93 % of control
- T/C [13]: 102 % of control

SMILES: Cc1noc(N)c1C
- T/C [12]: 92 % of control
- T/C [8]: 95 % of control
- T/C [9]: 92 % of control

SMILES: COc1cc(C2CC(C)(O)Oc3cc4c(cc32)OCO4)cc(OC)c1OC (stereo not drawn)
- T/C [17]: 106 % of control
- T/C [18]: 114 % of control
- T/C (endpoint: median survival time, dose: 86.0 mg/kg/injection, schedule: Q01DX005 (ip), vehicle: saline with Tween-80): 119 % of control
- T/C [19]: 110 % of control
- T/C (endpoint: median survival time, dose: 144.0 mg/kg/injection, schedule: Q01DX005 (ip), vehicle: saline with Tween-80): 160 % of control
- T/C (endpoint: median survival time, dose: 200.0 mg/kg/injection, schedule: Q01DX005 (ip), vehicle: saline with Tween-80): 102 % of control
- T/C (endpoint: median survival time, dose: 240.0 mg/kg/injection, schedule: Q01DX005 (ip), vehicle: saline with Tween-80): 102 % of control

SMILES: CN(C)CCN(Cc1ccc(Cl)cc1)c1ccccn1
- T/C (endpoint: mean survival time, dose: 3.13 mg/kg/injection, schedule: Q01DX009 (ip), vehicle: saline with Tween-80): 95 % of control
- T/C [20]: 109 % of control

SMILES: Cn1nc(-c2ccccc2)nc1[N+](=O)[O-]
- T/C [21]: 90 % of control and 103 % of control
- T/C [11]: 97 % of control
- T/C [12]: 103 % of control and 106 % of control
- T/C [8]: 121 % of control and 100 % of control

SMILES: CC(O)C[As](=O)(O)c1ccc(Cl)cc1 (stereo not drawn)
- T/C [22]: 95 % of control
- T/C [23]: 107 % of control
- T/C [4]: 107 % of control

SMILES: COC1NC(=O)NC(=O)C1=[N+]=[N-] (stereo not drawn)
- T/C (endpoint: mean survival time, dose: 2.5 mg/kg/injection, schedule: Q01DX009 (ip), vehicle: saline with Tween-80): 113 % of control

SMILES: CCCCCCCCCCCCCCCC(=O)N(C/C=C/CN(CCCN(C)C)C(=O)CCCCCCCCCCCCCCC)CCCN(C)C
- T/C [20]: 92 % of control
- T/C [22]: 95 % of control
- T/C [21]: 93 % of control
- T/C [23]: 93 % of control
- T/C [11]: 94 % of control
- T/C [4]: 98 % of control

SMILES: CC(=O)C[n+]1ccccc1Sc1ccc(Cl)cc1
- T/C (endpoint: median survival time, dose: 12.5 mg/kg/injection, schedule: Q01DX005 (ip), vehicle: saline with Tween-80): 100 % of control
- T/C [17]: 101 % of control
- T/C [18]: 97 % of control
- T/C [19]: 107 % of control

SMILES: CCCCCCCCCCOC(=O)Nc1cccc(O)c1
- T/C [6]: 95 % of control
- T/C [7]: 95 % of control
- T/C [13]: 98 % of control

SMILES: O=C(NCCO)NCCO
- T/C [14]: 110 % of control
- T/C [15]: 104 % of control
- T/C [16]: 110 % of control

SMILES: O=Cc1ccc(O)c2ncccc12
- T/C (endpoint: mean survival time, dose: 75.0 mg/kg/injection, schedule: Q01DX001 (ip), vehicle: other): 101 % of control
- T/C (endpoint: mean survival time, dose: 150.0 mg/kg/injection, schedule: Q01DX001 (ip), vehicle: other): 95 % of control
- T/C (endpoint: mean survival time, dose: 300.0 mg/kg/injection, schedule: Q01DX001 (ip), vehicle: other): 110 % of control

SMILES: CCCCCCCC(=O)Oc1ccc(N=Nc2ccc(OCC)cc2)cc1
- T/C [8]: 93 % of control
- T/C [6]: 95 % of control
- T/C [9]: 90 % of control
- T/C [7]: 95 % of control
- T/C [10]: 98 % of control
- T/C [13]: 89 % of control

SMILES: CCN(CC)C(=O)N1CC2CCC(C1)N2C
- T/C (endpoint: mean survival time, dose: 100.0 mg/kg/injection, schedule: Q04DX003 (ip), vehicle: saline): 100 % of control

SMILES: CS/C([S-])=N/N=C\c1ccccn1.CS/C([S-])=N/N=C\c1ccccn1.[Ni+2]
- T/C [6]: 97 % of control
- T/C [7]: 96 % of control
- T/C [13]: 96 % of control

SMILES: Nc1ccc(N=Nc2ccc3nccc(N)c3c2)c(N)n1
- T/C (endpoint: mean survival time, dose: 100.0 mg/kg/injection, schedule: Q04DX002 (ip), vehicle: saline with Tween-80): 119 % of control
- T/C (endpoint: mean survival time, dose: 200.0 mg/kg/injection, schedule: Q04DX002 (ip), vehicle: saline with Tween-80): 119 % of control
- T/C (endpoint: mean survival time, dose: 400.0 mg/kg/injection, schedule: Q04DX002 (ip), vehicle: saline with Tween-80): 119 % of control

SMILES: OC1CCC(CC2CCCCC2)CC1 (stereo not drawn)
- T/C [8]: 95 % of control
- T/C [9]: 92 % of control

SMILES: CN(C)CCC(=O)c1cccc2ccccc12
- T/C [11]: 98 % of control
- T/C [12]: 96 % of control
- T/C (endpoint: mean survival time, dose: 100.0 mg/kg/injection, schedule: Q01DX001 (ip), vehicle: saline with Tween-80): 92 % of control
- T/C [8]: 96 % of control
